Test [1] deals with adult patients with Attention-Deficit Hyperactive Disorder (ADHD). Briefly: Phase 2 randomized, double-blind, 2-period crossover study in adult ADHD. The format is in vivo, human. Particulars: for ADHD-RS hyperactivity subscale mean score: ITT. As for the experimental part: *This phase 2 study evaluated the efficacy, tolerability and safety of CX717 in the treatment of adult patients with Attention-Deficit Hyperactive Disorder (ADHD). The study was designed and executed as a randomized, double-blind, multi-center, 2-period crossover study comparing 2 doses of CX717 (200 mg, or 800 mg, BID) with placebo. Each treatment period lasted 3 weeks with a 2-week washout in between. Subjects met DSM-IV criteria for adult ADHD and had moderate to severe symptoms. The primary efficacy measure was the change from baseline on the ADHD Rating Scale (ADHD-RS) with adult ADHD prompts. A total of 68 male subjects, who were 19 to 50 years old and met criteria of Adult ADHD as defined by DSM IV, were randomized After accounting for early study dropouts, 51 subjects (75%) returned for efficacy assessments and completed both treatment periods (intent-to-treat population). […] Treatment with CX717 was well tolerated with no clinically significant changes in cardiovascular and other safety parameters with either dose. Sleep disturbances and headache were the most frequently reported adverse events.
The present study further examined the clinical efficacy, tolerability and safety of CX717 as a drug treatment for adults with ADHD. Eligible subjects were randomized to 1 of 4 possible treatment sequences in which they received placebo (P) and either high dose (H) or low dose (L) of active treatment in random order (PL, PH, LP, and HP). Each treatment period was 3 weeks in duration with a 2-week washout in between. The study design was modeled after several similarly published ADHD studies with atomoxetine and stimulants, with sample sizes in the mid-20s. Since this is the first such study with CX7171 in ADHD, it is assumed that efficacy would be achieved using historical assumptions in effect size, therefore, a total of 60 subjects were to be randomized.
All patients met DSM-IV criteria for adult ADHD, established by the Adult ADHD Clinical Diagnostic Scale (ACDS) Version 1.2. All patients gave written informed consent prior to enrollment and the conduct of the study was approved by either the […] Review Board (IRB) at each site or by the central IRB. Each subject had at least moderately severe ADHD symptoms (ADHD-RS score of ≥22; Clinician's Global Impression of Severity [CGI-S] score of ≥4). Each subject was male, and between 18-50 years old, inclusively. Male patients were selected because the necessary reproductive toxicology studies that would have allowed women of childbearing potential to be included in the study had not been completed.
Subjects were excluded if they were taking medication specifically for treatment of ADHD symptoms (e.g., stimulants, atomoxetine, tricyclic antidepressants, or bupropion). ADHD treatments were discontinued (stimulants for 2 weeks and non-stimulant for 4 weeks) prior to the Period 1 baseline visit. Subjects were also excluded if they were taking antidepressants, anticonvulsants, or antipsychotics.
CX717 capsules were administered orally as 200 mg BID or 800 mg BID doses. Matching placebo capsules were identical in appearance to the capsules containing active drug, and were administered orally. The study was divided into a series of periods: screening period—up to 4 weeks, treatment period 1-3 weeks; wash-out period—2 weeks; treatment period 2-3 weeks; follow-up period—approximately 1 week.
ADHD recovery drug efficacy was assessed using the Adult ADHD Rating Scale (DuPaul, 1998) with prompts ([…]) (Adler & Cohen, 2004). The primary efficacy outcome measure was the comparison of each dose of CX717 versus placebo on the change from baseline in ADHD symptoms as measured by the ADHD-RS at Week 3. Secondary efficacy parameters included comparisons of each dose of CX717 versus placebo for the ADHD-RS Inattentiveness Subscale Score of the ADHD-RS.
Safety was evaluated by adverse events (AEs), clinical laboratory tests, vital signs, physical examination, and electrocardiograms (ECGs). […]

Test [2] deals with adult rats. Briefly: Phrenic burst amplitude after C2 spinal cord hemisection (C2Hx). The format is in vivo, Rat. Particulars: two weeks after C2Hx, 15 mg/k, i.v. From the text: In a preliminary examination of the therapeutic potential of ampakines for treating SCI, Wollman and coworkers (2020^16) reported that ampakines may stimulate phrenic activity after incomplete cervical spinal cord injury (SCI) in anesthetized rats. […] To competently address the role of ampakines in alleviating neural and motor function deficits in SCI subjects, Applicants present herein a range of findings, illustrating a diverse array of potent ampakine activities effective for SCI treatment. Among these findings, two low impact ampakines, CX717 and CX1739, potently stimulate diaphragm muscle activation and breathing in freely moving, non-anesthetized rats following SCI. ^16 Wollman L B, Streeter K A, Fusco Gonzalez-Rothi E J, Sandhu M S, Greer J J, Fuller D D. Exp Neural. 2020 December; 334:113 doi: 10.1016/j.expneurol.2020.113465. Epub 2020 September PMID: 32949571.
Exemplifying the efficacy of combining Ampakine SCI treatment with secondary therapeutic intervention, Applicants determined in a predictive animal model that pairing ampakine treatment with a single bout of acute hypoxia (5-min, arterial partial pressure of O2˜50 mmHg) beneficially impacts phrenic bursting, with some rats showing a large facilitation that exceeds the response compared to ampakine-only treated subjects. […]

The test system of test [3] is non-selective alpha1 adrenergic receptor. The test is described as follows: Alpha1 adrenergic receptor radioligand binding. Particulars: 100 μM.
Where [4] appears, read: high dose (800 mg BID), after 3 weeks.

Entries after “also recorded” stand apart in the source; their conditions may differ.

`O=C(c1ccc2nonc2c1)N1CCOCC1` [CX717, 1-(benzofurazan-5-ylcarbonyl)morpholine]: in test [1] (200 mg BID), the “ADHD-RS outcome measures, low dose versus placebo” value is “no statistically significant differences; also recorded: did not differ from placebo”. In addition, the “ADHD-RS total and subscales, high dose versus placebo, repeated measures analysis” value in test [1] (800 mg BID, at endpoint) is reported as “superior efficacy compared to placebo”. The “ADHD-RS hyperactivity subscale mean score” value in test [1] (active dose (both doses), last value) is listed as −4.10; in test [1] (high dose, Week 1) it was −4.22; in test [1] (high dose, Week 3), −5.68; in test [1] (high dose, last value), −5.57. For the same molecule, in test [1] (setting [4]), the “Difference from placebo in mean change of ADHD-RS total score” value is reported as −4.73. For the same molecule, the “Mean change from baseline of ADHD-RS total score” value in test [1] (setting [4]) was −9.95. In test [2], the “Increase of contralateral (CL) phrenic burst amplitude” value is on record as 47±26 % BL. For the same molecule, the “Increase of ipsilateral (IL) phrenic burst amplitude” value in test [2] was 61±46 % baseline, BL.
Consider `CN(C(=O)c1ccc2nonc2c1)C1CCOCC1` [CX1739, N-Methyl-N-tetrahydro-2H-pyran-4-yl-[2,1,3]-benzoxadiazole-5-carboxamide], for which the “Inhibition of reference ligand binding, non-selective alpha1 adrenergic receptor” value in test [3] came to 67%.

The record behind these values is US20240100023A1, “Compositions and Methods For Treating Spinal Cord Injuries” (priority 2020, published 2024).
